Assay results: ChEMBL document CHEMBL1201862, “PubChem BioAssay data set” (2004)
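A five-concentration, 48-hour dose response in 96-well plates underlies each endpoint, interpolated linearly between surrounding concentrations. Here, GI50 denotes the concentration required for 50% inhibition of growth.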 The source made the active and inactive calls. No stated cut-off is given here; in the data, active = GI50 up to about 1.1 µM and inactive = higher.

Columns and labels:
Experiment in all cases: NCI tumour cell line growth inhibition, 48 h
[1] = test system: ACHN
[2] = test system: BT-549
[3] = test system: CCRF-CEM
[4] = test system: COLO 205
[5] = test system: DLD-1
[6] = test system: DMS-273
[7] = test system: DU-145
[8] = test system: KM12
[9] = test system: LXFL 529
[10] = test system: M19-MEL
[11] = test system: MDA-MB-231
[12] = test system: MDA-MB-435
[13] = test system: NCI-H226
[14] = test system: NCI-H23
[15] = test system: NCI-H460
[16] = test system: OVCAR-4
[17] = test system: SF-295
[18] = test system: SK-OV-3
[19] = test system: SNB-75
[20] = test system: U-251

SMILES	GI50 [1]	GI50 [2]	GI50 [3]	GI50 [4]	GI50 [5]	GI50 [6]	GI50 [7]	GI50 [8]	GI50 [9]	GI50 [10]	GI50 [11]	GI50 [12]	GI50 [13]	GI50 [14]	GI50 [15]	GI50 [16]	GI50 [17]	GI50 [18]	GI50 [19]	GI50 [20]
CS(=O)(=O)OCCN(CCOS(C)(=O)=O)c1ccc(C=O)cc1	0.346 µM (active)	13 µM (inactive)	0.897 µM (active)	1.81 µM (inactive)	18.5 µM (inactive)	0.314 µM (active)	505 nM (active)	10.4 µM (inactive)	18.1 µM (inactive)	12.6 µM (inactive)	21.4 µM (inactive)	10.3 µM (inactive)	1.84 µM (inactive)	1.63 µM (inactive)	0.0518 µM (active)	13 µM (inactive)	0.774 µM (active)	1.14 µM (inactive)	1.87 µM (inactive)	8.07 µM (inactive)
COC(=O)C1CCC(N2C(=O)CCC2C(=O)OC)=N1 (stereo not drawn)	> 100 µM (inactive)	–	> 100 µM (inactive)	> 100 µM (inactive)	> 100 µM (inactive)	> 100 µM (inactive)	–	> 100 µM (inactive)	> 100 µM (inactive)	> 100 µM (inactive)	–	–	> 100 µM (inactive)	> 100 µM (inactive)	> 100 µM (inactive)	> 100 µM (inactive)	> 100 µM (inactive)	> 100 µM (inactive)	> 100 µM (inactive)	> 100 µM (inactive)
COC(=O)C(=O)C(C(=O)C(=O)Nc1ccc(Cl)cc1C)c1nc2ccc(C(=O)c3ccccc3)cc2nc1O (stereo not drawn)	76.9 µM (inactive)	–	50.6 µM (inactive)	> 100 µM (inactive)	55.8 µM (inactive)	63.4 µM (inactive)	–	63 µM (inactive)	65.2 µM (inactive)	> 100 µM (inactive)	–	–	33.5 µM (inactive)	> 100 µM (inactive)	> 100 µM (inactive)	> 100 µM (inactive)	> 100 µM (inactive)	> 100 µM (inactive)	31.5 µM (inactive)	> 100 µM (inactive)
Cc1ccc(-c2cc(=O)c3cc(C)c(C)c(C(=O)O)c3o2)cc1C	> 100 µM (inactive)	–	> 100 µM (inactive)	> 100 µM (inactive)	> 100 µM (inactive)	> 100 µM (inactive)	–	> 100 µM (inactive)	> 100 µM (inactive)	> 100 µM (inactive)	–	–	> 100 µM (inactive)	> 100 µM (inactive)	> 100 µM (inactive)	> 100 µM (inactive)	> 100 µM (inactive)	> 100 µM (inactive)	> 100 µM (inactive)	> 100 µM (inactive)
